The test system of one assay is ABC-DLBCL cell line. Description: Tandem Mass Tag proteomics, lenalidomide vs Compound A. It is filed as cell-based. The conditions noted are these: 24 h. The source says:
Cells were harvested and proteins were fractionated using a basic pH reverse gradient method. Fractionated samples were labeled using a Tandem Mass Tag method.

Another assay deals with ZFP91, Aiolos. Description: Western blot of ZFP91 and Aiolos in OCI-LY10 cells. The class given is cell-based. The conditions noted are these: OCI-LY10, 6 hrs. The text has this:
Cells were harvested with RIPA buffer, and proteins from cell lysates were separated by 10% sodium dodecyl sulfate polyacrylamide (SDS-PAGE) gel electrophoresis (Bio-Rad), and transferred to PVDF membranes (Invitrogen). Immunoblots were probed with antibodies recognizing Aiolos (9-9-7; Celgene), CK1α(Abcam), GSPT1 (Sigma), ZFP91 (LSBio) and β-actin (Li-Cor). Signals were detected with a Li-Cor Odyssey imager.
Immunoblots were probed with antibodies recognizing Aiolos (9-9-7; Celgene), GSPT1 (Sigma), ZFP91 (LSBio) and β-actin (Li-Cor). Signals were detected with a Li-Cor Odyssey imager.
OCI-LY10 cells treated with DMSO or various drugs for 6 hrs. Cells were harvested with RIPA buffer and proteins from cell lysates were separated by 10% sodium dodecyl sulfate polyacrylamide (SDS-PAGE) gel electrophoresis (Bio-Rad), and transferred to PVDF membranes (Invitrogen). Immunoblots were probed with antibodies recognizing: Aiolos (9-9-7; Celgene), CK1α(Abcam), GSPT1 (Sigma), ZFP91 (LSBio) and β-actin (Li-Cor). Signals were detected with a Li-Cor Odyssey imager.
OCI-LY10 cells were then treated with DMSO or various drugs for 6 hrs. […] Cells were harvested with RIPA buffer and Proteins from cell lysates were separated by 10% sodium dodecyl sulfate polyacrylamide (SDS-PAGE) gel electrophoresis (Bio-Rad), and transferred to PVDF membranes (Invitrogen). Immunoblots were probed with antibodies recognizing: Aiolos (9-9-7; Celgene), ZFP91 (LSBio), ZNF198 (LSBio) and β-actin (Li-Cor). Signals were detected with a Li-Cor™ Odyssey imager.
OCI-LY10 cells stably transduced with shCRBN 11 were induced for 48 hrs with either 0 or 10 ng/ml of doxycycline. […] Where MLN4924 treatments were present, MLN4924 was pre-incubated for 1 hr prior to drug treatment. Cells were harvested with RIPA buffer and Proteins from cell lysates were separated by 10% sodium dodecyl sulfate polyacrylamide (SDS-PAGE) gel electrophoresis (Bio-Rad), and transferred to PVDF membranes (Invitrogen). Immunoblots were probed with antibodies recognizing: CRBN-65, Aiolos (9-9-7; Celgene), Ikaros (Millipore), ZFP91 (LSBio) and β-actin (Li-Cor). Signals were detected with a Li-Cor Odyssey imager.

In a further assay the test system is IRF7, IFN response. Put plainly: IFN response, Western blot of IRF7 in U2932 (ABC) cells. The class given is cell-based. As to the method:
U2932 (ABC) cells were cultured and cell-passaged long-term in Compound A as described in Section 6.10. Levels of Aiolos, IRF7, and β-actin (control) were assessed using Western blotting, essentially as described above in Section 6.8.
In general terms: Immunoblotting shows a protein as a band on a membrane.

In a further assay the test system is Aiolos, Ikaros. Put plainly: FFPE IHC for Aiolos and Ikaros in WSU-DLCL2 xenograft tumors. It is filed as in vivo. The conditions noted are these: WSU-DLCL2 xenograft SCID mice, 30 mg/kg qd. As for the experimental part: WSU-DLCL2 xenograft SCID mice can be prepared using methods known in the art. In brief, female CB17 severe combined immunodeficiency (SCID) mice (6-12 weeks old) are obtained from the Charles River Laboratory (Wilmington, Mass.) and maintained in microisolator cages under sterile conditions. A total of 10×10^6 WSU-DLCL2 DLBCL cells in 100% Matrigel® (Becton Dickinson, San Jose, Calif.) are injected subcutaneously into the right flank of mice. Mice are monitored 2 or 3 times a week for the appearance of tumors.
WSU-DLCL2 xenograft SCID mice (a human tumor xenograft model) were treated with either vehicle or 30 mg/kg Compound A q.d. Tumor samples were harvested at 1 hour, 6 hours, or 24 hours after the last dose.
Immunohistochemistry was performed using standard methods. For example, immunohistochemistry is performed on the Bond-Max™ automated slide stainer (Leica Microsystems) using the associated Bond™ Polymer Refine Detection Kit. Four micron thick FFPE sections are deparaffinized on the instrument. Antigen retrieval is performed with Epitope Retrieval™ 2 (pH 9.0) for 20 minutes at 100° C. The slides are blocked for endogenous peroxidase activity with Peroxide Block for 5 minutes at room temperature. […]

Assay [1] relates to DLBCL cell lines (GCB and ABC). Put plainly: tritiated thymidine incorporation proliferation assay. The class given is cell-based. As for the experimental part: Cells were then cultured for 3 days at 37° C. Tritiated thymidine was applied to the cell culture for the final 6 hours and cells were then harvested onto filter plates. After the plates have dried, scintillation fluid was added to the plates and read on a Top-count reader.
The cells were then analyzed for proliferation using a ^3H-thymidine incorporation assay.
Proliferation was assessed through tritiated thymidine incorporation.
(In general: Incorporation of labelled thymidine or its analogues reports DNA synthesis.)

For the next assay, the system named is Aiolos. Description: Western blot of Aiolos in GCB and ABC cell lines, 24 or 72 hours. To be noted: ABC and GCB DLBCL cell lines. The class given is cell-based. As for the experimental part: Aiolos or β-actin (control) protein levels were analyzed by Western blotting, essentially as described in Section 6.8.
In a further assay the test system is IFN pathway. Description: effect on IFN pathway (FIG. 13). It is filed as cell-based.
[2] abbreviates: 3 days, tritiated thymidine incorporation.

SMILES strings stand for the structures.

Take `Cc1nc2cccc(N)c2c(=O)n1C1CCC(=O)NC1=O` (centres unmarked) [Compound A, 3-(5-amino-2-methyl-4-oxo-4H-quinazolin-3-yl)-piperidine-2,6-dione]: the “overall effect on protein abundance compared to lenalidomide” value in the assay with ABC-DLBCL cell line (10 uM each, log2 ratios vs DMSO) is listed as “generally stronger effect”. Further, the “gradient of regression line, log2 ratios of lenalidomide and Compound A plotted against each other” value with ABC-DLBCL cell line (10 uM each, r2=0.752, intercept 0.03) stood at 1.45. Besides, the “effect on CSNK1A1 protein” value with ABC-DLBCL cell line (ABC-DLBCL cell line, 10 uM, vs DMSO) was “does not appear to affect”. Moreover, the “levels of ZFP91 and Aiolos” value in the assay on ZFP91, Aiolos (100 mM thalidomide, 10 mM lenalidomide, 1 mM pomalidomide, 1 μM or 10 μM Compound A, 100 nM Compound B, FIG. 17A) is “reduced”. Further, the “levels of ZFP91 and Aiolos” value in the assay with ZFP91, Aiolos (1 or 10 μM lenalidomide, 0.1, 1 or 10 μM Compound A, FIG. 17B) is reported as “reduced”. In the assay on IRF7, IFN response (FIG. 10A), the “IFN response gene expression” value is “up-regulates”. In the assay on IRF7, IFN response (U2932 (ABC), Western blot), the IRF7 protein expression result is “upregulates”. For the same compound, the “time to Aiolos and Ikaros degradation in tumor” value with Aiolos, Ikaros was not above 6 h. Further, in assay [1], the “sensitivity of ABC DLBCL cell lines” value is listed as “sensitive”. Further, in assay [1] (setting [2]), the “activity in some GCB DLBCL compared to lenalidomide (proliferation)” value was “Differential activity” and the “potency in ABC DLBCL (proliferation)” value was “more potent than lenalidomide”. Besides, the Aiolos protein levels entry in the assay on Aiolos was “decrease in a dose-dependent manner”. Further, in the assay with IFN pathway (FIG. 13A), the “IFIT1, IFIT3, DDX58, XAF1, IFIH1, and OAS3 protein expression” value is recorded as “upregulates”. The “DDX58, IFI27, IFIT1, IFIT3, DDX58, and XAF1 gene expression” value with IFN pathway (FIG. 13B) is reported as “upregulates”. Also, the “ISG15 and OAS3 gene expression” value in the assay on IFN pathway (FIG. 13C) was “upregulates”. Besides, the IRF changes entry in the assay on IFN pathway (FIG. 13E) is on record as “induces”. For the same compound, in the assay with IFN pathway (FIG. 13F), the “IFIT1 and IFIT3 protein expression” value is “upregulates”; the IKKE protein level entry is given as “reduces”; the “TBK1 phosphorylation (TBK1-PO4)” value is reported as “upregulates”. Besides, the “levels of STAT or phosphorylated STAT” value in the assay on IFN pathway (FIG. 13G) is given as “induces changes”.

The record behind these values is patent US10996215B2, “Methods for determining drug efficacy for the treatment of diffuse large B-cell lymphoma, multiple myeloma, and myeloid cancers” (CELGENE CORPORATION, priority 2013, dated 2021).
